From patent publication US20180318311A1, “TRICYCLIC 2-QUINOLINONES AS ANTIBACTERIALS” (priority 2017, published 2018) come the findings set out here.

Holding throughout (format): cell-based
Assay [1] has as its system S. aureus ATCC 49951 (NB01006). Put plainly: MIC by broth microdilution, S. aureus NB01006. Particulars: 35° C., 20 hours; for MIC: Staphylococcus aureus, ATCC49951, CAMHB, read-out: Antibacterial activity (MIC) NB01006. In short, it runs like this: (§1)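 Per CLSI, strains grown overnight on Mueller-Hinton agar are tested in cation-adjusted Mueller-Hinton broth at about 5×10^5 CFU/mL against serially diluted compound, 1% DMSO final. Incubation runs 20 h at 35° C; MIC is judged visually with OD600 support.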
(In broth dilution the organism is exposed to a series of concentrations in liquid medium.)

Assay [2] relates to S. aureus NB01006-AVR005, gyrA (S84L), grlA (580F) and grlB (E471K). Put plainly: microbe, parasite or virus in culture. The settings on record: for MIC: Staphylococcus aureus, 20 h, read-out: Antibacterial activity (MIC) NB01006-AVR005. In short, it runs like this:
as §1

Assay [3] deals with S. aureus NB01080 fluoroquinolone-resistant clinical isolate. In words: MIC by broth microdilution, S. aureus NB01080. The settings on record: CAMHB, 35° C., 20 hours; for MIC: Staphylococcus aureus, read-out: Antibacterial activity (MIC) NB01080. The method, boiled down:
as §1

In assay [4] the test system is E. faecalis ATCC 29212 (NB04001). In words: MIC by broth microdilution, E. faecalis NB04001. The settings on record: 35° C., 20 hours; for MIC: Enterococcus faecalis, ATCC29212, CAMHB, read-out: Antibacterial activity (MIC) NB04001. In short, it runs like this: as §1
The test system of assay [5] is S. pneumoniae ATCC 25922 (NB07001). In words: MIC by broth microdilution, S. pneumoniae NB07001. The settings on record: for MIC: Streptococcus pneumoniae, ATCC25922, 20 h, read-out: Antibacterial activity (MIC) NB07001. In short, it runs like this: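 MIC in μg/mL taken as the lowest concentration with no visible growth, checked by 600 nm reading after 20 h at 35°C, ambient air. Strains tested per CLSI microdilution in cation-adjusted Mueller-Hinton broth at about 5×10^5 CFU/mL, compounds as two-fold series, 1% DMSO final.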

In assay [6] the test system is E. coli ATCC 25922 (NB27001). Put plainly: MIC by broth microdilution, E. coli NB27001. Particulars: 35° C., 20 hours; for MIC: Escherichia coli, ATCC25922, CAMHB, read-out: Antibacterial activity (MIC) NB27001. The method, boiled down: as §1
Assay [7] deals with P. aeruginosa NB52019, wild-type PAO1 strain. Put plainly: MIC by broth microdilution, P. aeruginosa NB52019. Particulars: CAMHB, 35° C., 20 hours; for MIC: Pseudomonas aeruginosa, read-out: Antibacterial activity (MIC) NB52019. The method, boiled down:
as §1

Converted amounts (≈) assume the structure as drawn.

`Cc1c(F)c(N2CC[C@@H](C3(N)CC3)C2)c2c3c1cc(C(=O)O)c(=O)n3[C@@H](C)CO2` [Example 22, (S)-10-((R)-3-(1-aminocyclopropyl)pyrrolidin-1-yl)-9-fluoro-3,8-dimethyl-5-oxo-2,3-dihydro-5H-[1,4]oxazino[2,3,4-ij]quinoline-6-carboxylic acid]: the MIC in assay [1] is less than 1 µg/mL; in assay [2], 1 to 32 µg/mL (≈ 2.49 to 79.7 µM); in assay [3] it was less than 1 µg/mL; in assay [4], less than 1 µg/mL; in assay [5], less than 1 µg/mL; in assay [6] it was 1 to 32 µg/mL (≈ 2.49 to 79.7 µM). In addition, in assay [7], the MIC is greater than 32 µg/mL.
Take `CCc1c(F)c(N2CC[C@@H](C3(N)CC3)C2)c2c3c1cc(C(=O)O)c(=O)n3[C@@H](C)CO2` [Example 23, (S)-10-((R)-3-(1-aminocyclopropyl)pyrrolidin-1-yl)-8-ethyl-9-fluoro-3-methyl-5-oxo-2,3-dihydro-5H-[1,4]oxazino[2,3,4-ij]quinoline-6-carboxylic acid]: the MIC in assay [1] is 1 to 32 µg/mL (≈ 2.41 to 77 µM); in assay [2], greater than 32 µg/mL; in assay [3], 1 to 32 µg/mL (≈ 2.41 to 77 µM); in assay [4], 1 to 32 µg/mL (≈ 2.41 to 77 µM); in assay [5], 1 to 32 µg/mL (≈ 2.41 to 77 µM); in assay [6], greater than 32 µg/mL. For the same compound, the MIC in assay [7] was greater than 32 µg/mL.
Regarding `COc1c(N2C[C@@H]3CCCN[C@@H]3C2)c(F)cc2c(=O)c(C(=O)O)cn(C3CC3)c12` [MOX, moxifloxacin, reference compound], the MIC was less than 1 µg/mL in assay [1]; 1 to 32 µg/mL (≈ 2.49 to 79.7 µM) in assay [2]; greater than 32 µg/mL in assay [3]; less than 1 µg/mL in assay [4]; less than 1 µg/mL in assay [5]; less than 1 µg/mL in assay [6]. The MIC in assay [7] was 1 to 32 µg/mL (≈ 2.49 to 79.7 µM).
For the compound “(S)-9-fluoro-3-methyl-10-((R)-3-(1-((2,2,2-trifluoroacetyl)-14-azanyl)cyclopropyl)pyrrolidin-1-yl)-2,3-dihydro-5H-[1,4]oxazino[2,3,4-ij]quinolin-5-one trifluoroacetate salt [Example 6.1]”, the “Antibacterial activity (MIC) NB01006” value in assay [1] (CAMHB) is “A (1 > A)”. Besides, in assay [2] (ciprofloxacin-selected S. aureus mutant, CAMHB, 35° C., 20 hours), the “Antibacterial activity (MIC) NB01006-AVR005” value is recorded as “A (1 > A)”. The “Antibacterial activity (MIC) NB01080” value in assay [3] is “A (1 > A)”. Also, the “Antibacterial activity (MIC) NB04001” value in assay [4] (CAMHB) is given as “A (1 > A)”. The “Antibacterial activity (MIC) NB07001” value in assay [5] (S. pneumoniae, CAMHB supplemented with 5% lysed horse blood, 35° C., 20 hours) is listed as “A (1 > A)”. Further, in assay [6] (CAMHB), the “Antibacterial activity (MIC) NB27001” value was “B (32 > B ≥ 1)”. The “Antibacterial activity (MIC) NB52019” value in assay [7] was “C (C ≥ 32)”.
